Assay results published in patent US10183014B2, “Ocular formulations for drug-delivery and protection of the anterior segment of the eye” (PanOptica, Inc., priority 2014, dated 2019).
Where two headings read alike, the source gives them in different places.

How the values were obtained:
[1] = Ocular pharmacokinetics of formulations, Example 20-5; assay type: in vivo, Dutch Belted rabbits; details: TRIS 0.60%, glycerol 2%, HEC 0.2%, HPMC 0.08%, Vitamin K3 1 μM, 1 hr post dose on Day 5
Description: The study design (Table 19-1) consisted of forty-seven (47) Dutch Belted rabbits, each receiving a 30 μL bilateral topical ocular dose. Various suspension formulations of the present application were evaluated and compared against a cyclodextrin-based eye drops solution (Control Group 1, Table 19-1). Formula II or Compound-I was used in the test suspensions as well as the Eye Drops solution.
Ocular sampling occurred one hour following the first daily dose on Day 5 for all groups. Whole blood samples using K2EDTA as an anticoagulant were collected from all animals on Day 5, 1 hour post dose. The whole blood was placed on ice until samples were spun in a centrifuge to separate the plasma. Aqueous humor, conjunctiva, cornea, central retina, peripheral retina, central choroid, and peripheral choroid samples were collected following necropsy. Samples were then frozen at −70° C. or lower. For all Groups 1-15, plasma, central retina, central choroid, and cornea samples were assayed. For Group 5 only, samples were analyzed for Vitamin K3.
An analytical method for the analysis of Vitamin K3 was determined in plasma, central retina, central choroid, and cornea samples from Group 5 animals. A calibration curve prepared in control vitreous humor was used to determine the concentration of Vitamin K3. Internal standard (IS) responses were inconsistent for the central choroid and plasma samples. Thus, positive plasma results were likely due to the reduced IS response.

ABL1 E255K = ABL1 E255K (Homo sapiens, UniProt P00519, E255K); experiment: In vitro inhibition of tyrosine kinases; assay type: biochemical; details: read-out: Mean % Inhibition at 1 μM Compound-I; 1 μM (568.9 ng/mL)
ABL1 E255K, sequence (P00519 whole entry E255K): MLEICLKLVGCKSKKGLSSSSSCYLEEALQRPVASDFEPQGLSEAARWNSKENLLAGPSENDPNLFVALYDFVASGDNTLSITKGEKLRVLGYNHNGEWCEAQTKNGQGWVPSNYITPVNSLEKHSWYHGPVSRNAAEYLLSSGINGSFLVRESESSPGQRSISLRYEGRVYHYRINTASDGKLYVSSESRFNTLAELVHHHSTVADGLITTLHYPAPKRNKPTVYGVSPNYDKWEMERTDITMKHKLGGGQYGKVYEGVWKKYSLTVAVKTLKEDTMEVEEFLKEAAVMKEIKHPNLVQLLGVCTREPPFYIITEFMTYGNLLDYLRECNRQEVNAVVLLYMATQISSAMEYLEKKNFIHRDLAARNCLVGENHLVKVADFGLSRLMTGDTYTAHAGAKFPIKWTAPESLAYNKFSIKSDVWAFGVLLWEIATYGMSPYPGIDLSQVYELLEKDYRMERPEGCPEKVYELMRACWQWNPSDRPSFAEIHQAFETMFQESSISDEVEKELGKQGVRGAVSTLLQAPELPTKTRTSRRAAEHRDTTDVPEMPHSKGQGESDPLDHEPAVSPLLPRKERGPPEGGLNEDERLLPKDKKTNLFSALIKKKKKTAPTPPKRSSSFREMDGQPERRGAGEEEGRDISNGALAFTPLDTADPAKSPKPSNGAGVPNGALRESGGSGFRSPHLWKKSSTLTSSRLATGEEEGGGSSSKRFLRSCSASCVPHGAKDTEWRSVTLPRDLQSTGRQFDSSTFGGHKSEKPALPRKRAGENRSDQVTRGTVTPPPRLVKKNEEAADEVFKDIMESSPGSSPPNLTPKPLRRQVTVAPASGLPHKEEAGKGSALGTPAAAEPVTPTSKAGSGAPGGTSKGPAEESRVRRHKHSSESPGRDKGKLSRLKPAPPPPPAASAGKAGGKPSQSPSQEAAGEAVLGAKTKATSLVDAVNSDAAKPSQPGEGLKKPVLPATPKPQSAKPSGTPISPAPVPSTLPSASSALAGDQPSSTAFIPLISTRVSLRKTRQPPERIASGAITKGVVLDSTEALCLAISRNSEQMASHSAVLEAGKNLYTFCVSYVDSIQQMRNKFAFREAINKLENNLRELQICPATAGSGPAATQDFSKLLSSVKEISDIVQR

MAP4K4 (HGK) = MAP4K4 (HGK) (Homo sapiens, UniProt O95819); experiment: In vitro inhibition of tyrosine kinases; assay type: biochemical; details: read-out: Mean % Inhibition at 1 μM Compound-I; 1 μM (568.9 ng/mL)
MAP4K4 (HGK), sequence (O95819 whole entry, species assumed): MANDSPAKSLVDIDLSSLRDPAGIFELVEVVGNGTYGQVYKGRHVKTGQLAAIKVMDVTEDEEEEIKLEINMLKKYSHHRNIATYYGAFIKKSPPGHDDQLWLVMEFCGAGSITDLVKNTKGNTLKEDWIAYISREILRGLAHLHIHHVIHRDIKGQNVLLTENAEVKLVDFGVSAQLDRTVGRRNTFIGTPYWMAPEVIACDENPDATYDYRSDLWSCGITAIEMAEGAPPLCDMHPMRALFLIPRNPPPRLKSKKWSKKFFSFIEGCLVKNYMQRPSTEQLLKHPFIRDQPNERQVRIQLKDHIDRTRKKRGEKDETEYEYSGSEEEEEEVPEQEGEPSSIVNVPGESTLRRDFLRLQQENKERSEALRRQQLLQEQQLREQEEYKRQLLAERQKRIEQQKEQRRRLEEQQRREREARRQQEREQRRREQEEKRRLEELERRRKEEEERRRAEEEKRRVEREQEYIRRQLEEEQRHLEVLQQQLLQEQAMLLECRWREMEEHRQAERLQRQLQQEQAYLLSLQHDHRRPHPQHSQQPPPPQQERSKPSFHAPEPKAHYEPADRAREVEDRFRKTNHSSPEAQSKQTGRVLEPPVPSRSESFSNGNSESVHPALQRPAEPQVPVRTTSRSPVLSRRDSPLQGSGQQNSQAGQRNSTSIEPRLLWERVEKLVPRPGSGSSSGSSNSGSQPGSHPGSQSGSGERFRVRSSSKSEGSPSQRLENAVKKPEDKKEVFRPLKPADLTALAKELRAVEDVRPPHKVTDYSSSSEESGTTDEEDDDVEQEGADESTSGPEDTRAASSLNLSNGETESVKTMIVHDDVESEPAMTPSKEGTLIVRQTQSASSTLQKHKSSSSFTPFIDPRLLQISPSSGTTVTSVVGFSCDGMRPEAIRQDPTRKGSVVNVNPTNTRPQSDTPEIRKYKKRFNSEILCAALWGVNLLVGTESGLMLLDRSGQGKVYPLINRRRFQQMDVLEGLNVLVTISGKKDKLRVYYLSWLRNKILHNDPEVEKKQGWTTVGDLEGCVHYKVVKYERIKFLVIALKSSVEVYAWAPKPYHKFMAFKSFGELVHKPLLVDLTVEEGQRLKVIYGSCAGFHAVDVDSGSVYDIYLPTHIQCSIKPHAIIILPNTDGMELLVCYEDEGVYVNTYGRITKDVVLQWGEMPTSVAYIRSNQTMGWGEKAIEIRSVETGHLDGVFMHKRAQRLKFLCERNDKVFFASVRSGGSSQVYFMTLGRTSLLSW

SMILES: Cl.NC(=O)c1c(OCc2c(F)cc(Br)cc2F)nsc1NC(=O)NCCCCN1CCCC1 [Compound-I, 3-[(4-bromo-2,6-difluorophenyl)methoxy]-5-[[[[4-(1-pyrrolidinyl)butyl]amino]carbonyl]amino]-4-isothiazolecarboxamide hydrochloride]
- concentration at 1 h ([1]; Group 2: 4 mg/mL suspension, 30 μm particles, pH 6, QD for 4 days, read-out: Central Retina concentration): 50.6 nM
- concentration at 1 h ([1]; Group 2: 4 mg/mL suspension, 30 μm particles, pH 6, QD for 4 days, read-out: Cornea concentration): 7480 nM
- Plasma concentration ([1]; Group 3: 4 mg/mL suspension, 3 μm particles, pH 6, QD for 4 days): 7.04 nM
- concentration at 1 h ([1]; Group 3: 4 mg/mL suspension, 3 μm particles, pH 6, QD for 4 days, read-out: Central Choroid concentration): 159 nM
- concentration at 1 h ([1]; Group 3: 4 mg/mL suspension, 3 μm particles, pH 6, QD for 4 days, read-out: Central Retina concentration): 92.8 nM
- concentration at 1 h ([1]; Group 3: 4 mg/mL suspension, 3 μm particles, pH 6, QD for 4 days, read-out: Cornea concentration): 10200 nM
- Plasma concentration ([1]; Group 4: 4 mg/mL suspension (Control), 50 μm particles (Native), pH 6, QD for 4 days): 5.98 nM
- concentration at 1 h ([1]; Group 4: 4 mg/mL suspension (Control), 50 μm particles (Native), pH 6, QD for 4 days, read-out: Central Choroid concentration): 128 nM
- concentration at 1 h ([1]; Group 4: 4 mg/mL suspension (Control), 50 μm particles (Native), pH 6, QD for 4 days, read-out: Central Retina concentration): 73.5 nM
- concentration at 1 h ([1]; Group 4: 4 mg/mL suspension (Control), 50 μm particles (Native), pH 6, QD for 4 days, read-out: Cornea concentration): 3930 nM
- Plasma concentration ([1]; Group 6: 4 mg/mL suspension, 50 μm particles, pH 6, BID for 4 days): 4.15 nM
- concentration at 1 h ([1]; Group 6: 4 mg/mL suspension, 50 μm particles, pH 6, BID for 4 days, read-out: Central Choroid concentration): 199 nM
- concentration at 1 h ([1]; Group 6: 4 mg/mL suspension, 50 μm particles, pH 6, BID for 4 days, read-out: Central Retina concentration): 44.1 nM
- concentration at 1 h ([1]; Group 6: 4 mg/mL suspension, 50 μm particles, pH 6, BID for 4 days, read-out: Cornea concentration): 6410 nM
- Plasma concentration ([1]; Group 8: 1 mg/mL suspension, 50 μm particles, pH 6, BID for 4 days): 2.11 nM
- concentration at 1 h ([1]; Group 8: 1 mg/mL suspension, 50 μm particles, pH 6, BID for 4 days, read-out: Central Choroid concentration): 70.8 nM
- concentration at 1 h ([1]; Group 8: 1 mg/mL suspension, 50 μm particles, pH 6, BID for 4 days, read-out: Central Retina concentration): 34.2 nM
- concentration at 1 h ([1]; Group 8: 1 mg/mL suspension, 50 μm particles, pH 6, BID for 4 days, read-out: Cornea concentration): 1720 nM
- Plasma concentration ([1]; Group 10: 2 mg/mL suspension, 50 μm particles, pH 6, BID for 4 days): 3.76 nM
- concentration at 1 h ([1]; Group 10: 2 mg/mL suspension, 50 μm particles, pH 6, BID for 4 days, read-out: Central Retina concentration): 50.7 nM
- Plasma concentration ([1]; Group 13 (different batch of Compound-I): 4 mg/mL suspension, 50 μm particles, pH 6, QD for 4 days): 7.09 nM
- concentration at 1 h ([1]; Group 13 (different batch of Compound-I): 4 mg/mL suspension, 50 μm particles, pH 6, QD for 4 days, read-out: Central Retina concentration): 76.6 nM
- concentration at 1 h ([1]; Group 13 (different batch of Compound-I): 4 mg/mL suspension, 50 μm particles, pH 6, QD for 4 days, read-out: Cornea concentration): 8550 nM
- Plasma concentration ([1]; Group 14 (different batch of Compound-I): 4 mg/mL suspension, 50 μm particles, pH 6, QD for 4 days): 2.68 nM
- concentration at 1 h ([1]; Group 14 (different batch of Compound-I): 4 mg/mL suspension, 50 μm particles, pH 6, QD for 4 days, read-out: Central Choroid concentration): 203 nM
- concentration at 1 h ([1]; Group 14 (different batch of Compound-I): 4 mg/mL suspension, 50 μm particles, pH 6, QD for 4 days, read-out: Central Retina concentration): 38.4 nM
- concentration at 1 h ([1]; Group 14 (different batch of Compound-I): 4 mg/mL suspension, 50 μm particles, pH 6, QD for 4 days, read-out: Cornea concentration): 3880 nM
- Plasma concentration ([1]; Group 15 (different batch of Compound-I): 4 mg/mL suspension, 50 μm particles, pH 6, QD for 4 days): 4.69 nM
- concentration at 1 h ([1]; Group 15 (different batch of Compound-I): 4 mg/mL suspension, 50 μm particles, pH 6, QD for 4 days, read-out: Central Choroid concentration): 196 nM
- concentration at 1 h ([1]; Group 15 (different batch of Compound-I): 4 mg/mL suspension, 50 μm particles, pH 6, QD for 4 days, read-out: Central Retina concentration): 63 nM
- concentration at 1 h ([1]; Group 15 (different batch of Compound-I): 4 mg/mL suspension, 50 μm particles, pH 6, QD for 4 days, read-out: Cornea concentration): 4230 nM
- inhibition at 1 µM (ABL1 E255K): 90%
- inhibition at 1 µM (MAP4K4 (HGK)): 100%
